From the NIST ThermoML archive (doi:10.1016/j.jct.2018.12.012)
± gives the expanded uncertainty stated by the source.

What was measured:
[1] = xn = mol fraction of the nth substance listed; settings: 100 kPa, Liquid, x2 = 0; for speed of sound: Frequency=3 MHz, Single path-length method; for mass density: Vibrating tube method
[2] = 100 kPa, Liquid; for speed of sound: Frequency=3 MHz, Single path-length method; for mass density: Vibrating tube method

Row | SMILES | speed of sound ([1]; 293.15 K) | mass density ([1]; 293.15 K) | speed of sound ([1]; 298.15 K) | mass density ([1]; 298.15 K) | speed of sound ([1]; 303.15 K) | mass density ([1]; 303.15 K) | speed of sound ([1]; 308.15 K) | mass density ([1]; 308.15 K) | speed of sound ([2]; 293.15 K) | mass density ([2]; 293.15 K) | speed of sound ([2]; 298.15 K) | mass density ([2]; 298.15 K) | speed of sound ([2]; 303.15 K) | mass density ([2]; 303.15 K) | speed of sound ([2]; 308.15 K) | mass density ([2]; 308.15 K)
1 | CCC(C)O (centres undefined) [butan-2-ol] + CC(C)NC(C)C | 1229.9 ± 6.2 m/s | 806.952 ± 1.4 kg/m3 | 1212.1 ± 6.2 m/s | 802.847 ± 1.4 kg/m3 | 1194.1 ± 6.2 m/s | 798.651 ± 1.4 kg/m3 | 1176 ± 6.2 m/s | 794.363 ± 1.4 kg/m3 | – | – | – | – | – | – | – | –
2 | CCCC(C)O (centres undefined) [pentan-2-ol] | – | – | – | – | – | – | – | – | 1250.3 ± 6.5 m/s | 809.399 ± 1.5 kg/m3 | 1232.4 ± 6.5 m/s | 805.37 ± 1.5 kg/m3 | 1214.1 ± 6.5 m/s | 801.27 ± 1.5 kg/m3 | 1195.7 ± 6.5 m/s | 797.08 ± 1.5 kg/m3
3 | CCCC(C)O (centres undefined) [pentan-2-ol] + CCCCNCCCC | 1250.3 ± 6.5 m/s | 809.399 ± 1.5 kg/m3 | 1232.4 ± 6.5 m/s | 805.37 ± 1.5 kg/m3 | 1214.1 ± 6.5 m/s | 801.27 ± 1.5 kg/m3 | 1195.7 ± 6.5 m/s | 797.08 ± 1.5 kg/m3 | – | – | – | – | – | – | – | –
4 | CC(C)NC(C)C [diisopropylamine] | – | – | – | – | – | – | – | – | 1116.4 ± 6.3 m/s | 717.305 ± 1.4 kg/m3 | 1093.8 ± 6.3 m/s | 712.441 ± 1.4 kg/m3 | 1071.1 ± 6.3 m/s | 707.55 ± 1.4 kg/m3 | 1043.5 ± 6.3 m/s | 702.661 ± 1.4 kg/m3
5 | CCC(C)O (centres undefined) [butan-2-ol] | – | – | – | – | – | – | – | – | 1229.9 ± 6.2 m/s | 806.952 ± 1.4 kg/m3 | 1212.1 ± 6.2 m/s | 802.847 ± 1.4 kg/m3 | 1194.1 ± 6.2 m/s | 798.651 ± 1.4 kg/m3 | 1176 ± 6.2 m/s | 794.363 ± 1.4 kg/m3
6 | CCCCNCCCC [dibutylamine] | – | – | – | – | – | – | – | – | 1260.1 ± 6.3 m/s | 759.579 ± 1.4 kg/m3 | 1240.1 ± 6.3 m/s | 755.48 ± 1.4 kg/m3 | 1220.3 ± 6.3 m/s | 751.374 ± 1.4 kg/m3 | 1200.6 ± 6.3 m/s | 747.268 ± 1.4 kg/m3
7 | CCCC(C)O (centres undefined) [pentan-2-ol] + CC(C)NC(C)C | 1250.3 ± 6.5 m/s | 809.399 ± 1.5 kg/m3 | 1232.4 ± 6.5 m/s | 805.37 ± 1.5 kg/m3 | 1214.1 ± 6.5 m/s | 801.27 ± 1.5 kg/m3 | 1195.7 ± 6.5 m/s | 797.08 ± 1.5 kg/m3 | – | – | – | – | – | – | – | –
8 | CCC(C)O (centres undefined) [butan-2-ol] + CCCCNCCCC | 1229.9 ± 6.2 m/s | 806.952 ± 1.4 kg/m3 | 1212.1 ± 6.2 m/s | 802.847 ± 1.4 kg/m3 | 1194.1 ± 6.2 m/s | 798.651 ± 1.4 kg/m3 | 1176 ± 6.2 m/s | 794.363 ± 1.4 kg/m3 | – | – | – | – | – | – | – | –
